Measured values from PubChem BioAssay (NCI).
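How tested: cells in 96-well plates exposed to compound for 48 hours at five concentrations. GI50: concentration for 50% inhibition of growth. TGI: total growth inhibition.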

Legend:
Test in all cases: NCI-60 cell line screen, 48 h
786-0 renal = test system: 786-0 renal
A498 renal = test system: A498 renal
A549 NSCLC = test system: A549 NSCLC
ACHN renal = test system: ACHN renal
BT-549 breast = test system: BT-549 breast
CAKI-1 renal = test system: CAKI-1 renal
CCRF-CEM leukemia = test system: CCRF-CEM leukemia
COLO 205 colon = test system: COLO 205 colon
DU-145 prostate = test system: DU-145 prostate
EKVX NSCLC = test system: EKVX NSCLC
HCC-2998 colon = test system: HCC-2998 colon
HCT-116 colon = test system: HCT-116 colon
HCT-15 colon = test system: HCT-15 colon
HL-60(TB) leukemia = test system: HL-60(TB) leukemia
HOP-62 NSCLC = test system: HOP-62 NSCLC
HOP-92 NSCLC = test system: HOP-92 NSCLC
HS 578T breast = test system: HS 578T breast
HT29 colon = test system: HT29 colon
IGROV1 ovarian = test system: IGROV1 ovarian
K-562 leukemia = test system: K-562 leukemia
KM12 colon = test system: KM12 colon
LOX IMVI melanoma = test system: LOX IMVI melanoma
M14 melanoma = test system: M14 melanoma
MALME-3M melanoma = test system: MALME-3M melanoma
MCF7 breast = test system: MCF7 breast
MDA-MB-231 breast = test system: MDA-MB-231 breast
MDA-MB-435 = test system: MDA-MB-435
MOLT-4 leukemia = test system: MOLT-4 leukemia
NCI-H226 lung = test system: NCI-H226 lung
NCI-H23 lung = test system: NCI-H23 lung
NCI-H460 lung = test system: NCI-H460 lung
NCI-H522 lung = test system: NCI-H522 lung
NCI/ADR-RES ovarian = test system: NCI/ADR-RES ovarian
OVCAR-3 ovarian = test system: OVCAR-3 ovarian
OVCAR-4 ovarian = test system: OVCAR-4 ovarian
OVCAR-5 ovarian = test system: OVCAR-5 ovarian
OVCAR-8 ovarian = test system: OVCAR-8 ovarian
PC-3 prostate = test system: PC-3 prostate
RPMI-8226 leukemia = test system: RPMI-8226 leukemia
RXF 393 renal = test system: RXF 393 renal
SF-268 CNS = test system: SF-268 CNS
SF-295 CNS = test system: SF-295 CNS
SF-539 CNS = test system: SF-539 CNS
SK-MEL-2 melanoma = test system: SK-MEL-2 melanoma
SK-MEL-5 melanoma = test system: SK-MEL-5 melanoma
SK-OV-3 ovarian = test system: SK-OV-3 ovarian
SN12C renal = test system: SN12C renal
SNB-19 CNS = test system: SNB-19 CNS
SNB-75 CNS = test system: SNB-75 CNS
SR leukemia = test system: SR leukemia
SW-620 colon = test system: SW-620 colon
T-47D breast = test system: T-47D breast
TK-10 renal = test system: TK-10 renal
U251 CNS = test system: U251 CNS
UACC-257 melanoma = test system: UACC-257 melanoma
UACC-62 melanoma = test system: UACC-62 melanoma
UO-31 renal = test system: UO-31 renal

Q: With `COc1ccc(NC([Se])=NC23CC4CC(CC(C4)C2)C3)cc1` as the compound, how does the GI50 (786-0 renal) read?
A: 1.78 µM

Q: And the TGI (786-0 renal)?
A: 4.22 µM

Q: What about the GI50 (A498 renal) of the same compound?
A: 1.32 µM

Q: And the TGI (A498 renal)?
A: 4.75 µM

Q: And the GI50 (A549 NSCLC)?
A: 2.38 µM

Q: And the TGI (A549 NSCLC)?
A: 7.78 µM

Q: And the GI50 (ACHN renal)?
A: 1.99 µM

Q: And the TGI (ACHN renal)?
A: 4.71 µM

Q: And the GI50 (BT-549 breast)?
A: 0.874 µM

Q: What about the TGI (BT-549 breast) of the same compound?
A: 2.32 µM

Q: What about the GI50 (CAKI-1 renal) of the same compound?
A: 2.57 µM

Q: What about the TGI (CAKI-1 renal) of the same compound?
A: 10.2 µM

Q: What about the GI50 (CCRF-CEM leukemia) of the same compound?
A: 0.705 µM

Q: What about the TGI (CCRF-CEM leukemia) of the same compound?
A: 4.97 µM

Q: What about the GI50 (COLO 205 colon) of the same compound?
A: 1.66 µM

Q: What about the TGI (COLO 205 colon) of the same compound?
A: 3.95 µM

Q: And the GI50 (DU-145 prostate)?
A: 3.13 µM

Q: What about the TGI (DU-145 prostate) of the same compound?
A: 11.2 µM

Q: What about the GI50 (EKVX NSCLC) of the same compound?
A: 1.97 µM

Q: What about the TGI (EKVX NSCLC) of the same compound?
A: 4.74 µM

Q: What about the GI50 (HCC-2998 colon) of the same compound?
A: 2.86 µM

Q: What about the TGI (HCC-2998 colon) of the same compound?
A: 8.5 µM

Q: And the GI50 (HCT-116 colon)?
A: 1.28 µM

Q: And the TGI (HCT-116 colon)?
A: 2.78 µM

Q: What about the GI50 (HCT-15 colon) of the same compound?
A: 1.57 µM

Q: What about the TGI (HCT-15 colon) of the same compound?
A: 11.1 µM

Q: What about the GI50 (HL-60(TB) leukemia) of the same compound?
A: 2.15 µM

Q: What about the TGI (HL-60(TB) leukemia) of the same compound?
A: 5.91 µM

Q: What about the GI50 (HOP-62 NSCLC) of the same compound?
A: 2.24 µM

Q: And the TGI (HOP-62 NSCLC)?
A: 9.49 µM

Q: And the GI50 (HOP-92 NSCLC)?
A: 2.34 µM

Q: What about the TGI (HOP-92 NSCLC) of the same compound?
A: 14.2 µM

Q: And the GI50 (HS 578T breast)?
A: 2.08 µM

Q: And the TGI (HS 578T breast)?
A: 7.89 µM

Q: What about the GI50 (HT29 colon) of the same compound?
A: 2.64 µM

Q: What about the TGI (HT29 colon) of the same compound?
A: 15 µM

Q: What about the GI50 (IGROV1 ovarian) of the same compound?
A: 1.64 µM

Q: And the TGI (IGROV1 ovarian)?
A: 7.7 µM

Q: What about the GI50 (K-562 leukemia) of the same compound?
A: 0.542 µM

Q: And the TGI (K-562 leukemia)?
A: 18.8 µM

Q: And the GI50 (KM12 colon)?
A: 1.85 µM

Q: And the TGI (KM12 colon)?
A: 5.54 µM

Q: And the GI50 (LOX IMVI melanoma)?
A: 1.91 µM

Q: What about the TGI (LOX IMVI melanoma) of the same compound?
A: 5.09 µM

Q: And the GI50 (M14 melanoma)?
A: 1.37 µM

Q: And the TGI (M14 melanoma)?
A: 3.29 µM

Q: What about the GI50 (MALME-3M melanoma) of the same compound?
A: 0.653 µM

Q: And the TGI (MALME-3M melanoma)?
A: 3.74 µM

Q: And the GI50 (MCF7 breast)?
A: 1.57 µM

Q: What about the TGI (MCF7 breast) of the same compound?
A: 9.4 µM

Q: What about the GI50 (MDA-MB-231 breast) of the same compound?
A: 1.79 µM

Q: And the TGI (MDA-MB-231 breast)?
A: 3.91 µM

Q: What about the GI50 (MDA-MB-435) of the same compound?
A: 2.84 µM

Q: What about the TGI (MDA-MB-435) of the same compound?
A: 19.5 µM

Q: What about the GI50 (MOLT-4 leukemia) of the same compound?
A: 0.611 µM

Q: What about the TGI (MOLT-4 leukemia) of the same compound?
A: 5.12 µM

Q: And the GI50 (NCI-H226 lung)?
A: 1.25 µM

Q: And the TGI (NCI-H226 lung)?
A: 5.26 µM

Q: What about the GI50 (NCI-H23 lung) of the same compound?
A: 0.456 µM

Q: What about the TGI (NCI-H23 lung) of the same compound?
A: 3 µM

Q: What about the GI50 (NCI-H460 lung) of the same compound?
A: 1.98 µM

Q: And the TGI (NCI-H460 lung)?
A: 10.7 µM

Q: What about the GI50 (NCI-H522 lung) of the same compound?
A: 1.23 µM

Q: And the TGI (NCI-H522 lung)?
A: 4.35 µM

Q: What about the GI50 (NCI/ADR-RES ovarian) of the same compound?
A: 0.711 µM

Q: And the TGI (NCI/ADR-RES ovarian)?
A: 8.88 µM

Q: And the GI50 (OVCAR-3 ovarian)?
A: 1.39 µM

Q: And the TGI (OVCAR-3 ovarian)?
A: 3.21 µM

Q: What about the GI50 (OVCAR-4 ovarian) of the same compound?
A: 0.42 µM

Q: And the TGI (OVCAR-4 ovarian)?
A: 3.46 µM

Q: What about the GI50 (OVCAR-5 ovarian) of the same compound?
A: 1.7 µM

Q: And the TGI (OVCAR-5 ovarian)?
A: 4.68 µM

Q: What about the GI50 (OVCAR-8 ovarian) of the same compound?
A: 0.645 µM

Q: And the TGI (OVCAR-8 ovarian)?
A: 3.71 µM

Q: What about the GI50 (PC-3 prostate) of the same compound?
A: 0.696 µM

Q: What about the TGI (PC-3 prostate) of the same compound?
A: 32.2 µM

Q: What about the GI50 (RPMI-8226 leukemia) of the same compound?
A: 0.845 µM

Q: And the TGI (RPMI-8226 leukemia)?
A: 3.8 µM

Q: What about the GI50 (RXF 393 renal) of the same compound?
A: 1.8 µM

Q: What about the TGI (RXF 393 renal) of the same compound?
A: 4.72 µM

Q: And the GI50 (SF-268 CNS)?
A: 3.55 µM

Q: What about the TGI (SF-268 CNS) of the same compound?
A: > 100 µM

Q: And the GI50 (SF-295 CNS)?
A: 1.52 µM

Q: What about the TGI (SF-295 CNS) of the same compound?
A: 4.15 µM

Q: What about the GI50 (SF-539 CNS) of the same compound?
A: 1.89 µM

Q: And the TGI (SF-539 CNS)?
A: 4.19 µM

Q: And the GI50 (SK-MEL-2 melanoma)?
A: 2.27 µM

Q: What about the TGI (SK-MEL-2 melanoma) of the same compound?
A: 7.33 µM

Q: What about the GI50 (SK-MEL-5 melanoma) of the same compound?
A: 0.558 µM

Q: And the TGI (SK-MEL-5 melanoma)?
A: 1.79 µM

Q: And the GI50 (SK-OV-3 ovarian)?
A: 2.45 µM

Q: What about the TGI (SK-OV-3 ovarian) of the same compound?
A: 7.43 µM

Q: What about the GI50 (SN12C renal) of the same compound?
A: 1.61 µM

Q: And the TGI (SN12C renal)?
A: 8.81 µM

Q: And the GI50 (SNB-19 CNS)?
A: 1.86 µM

Q: What about the TGI (SNB-19 CNS) of the same compound?
A: 50.6 µM

Q: And the GI50 (SNB-75 CNS)?
A: 1.54 µM

Q: What about the TGI (SNB-75 CNS) of the same compound?
A: 4.5 µM

Q: And the GI50 (SR leukemia)?
A: 1.67 µM

Q: What about the TGI (SR leukemia) of the same compound?
A: > 100 µM

Q: And the GI50 (SW-620 colon)?
A: 1.51 µM

Q: And the TGI (SW-620 colon)?
A: 6.45 µM

Q: And the GI50 (T-47D breast)?
A: 1.88 µM

Q: What about the TGI (T-47D breast) of the same compound?
A: 4.89 µM

Q: And the GI50 (TK-10 renal)?
A: 2.1 µM

Q: And the TGI (TK-10 renal)?
A: 5.52 µM

Q: And the GI50 (U251 CNS)?
A: 1.27 µM

Q: What about the TGI (U251 CNS) of the same compound?
A: 4.91 µM

Q: What about the GI50 (UACC-257 melanoma) of the same compound?
A: 2.03 µM

Q: What about the TGI (UACC-257 melanoma) of the same compound?
A: 5.44 µM

Q: What about the GI50 (UACC-62 melanoma) of the same compound?
A: 1.43 µM

Q: What about the TGI (UACC-62 melanoma) of the same compound?
A: 4.96 µM

Q: And the GI50 (UO-31 renal)?
A: 1.74 µM

Q: And the TGI (UO-31 renal)?
A: 4.11 µM
